Measured values published in ChEMBL document CHEMBL5321200, “Discovery of the GSH responsive "Y-PROTACs" targeting ALK and CDK4/6 as a potential treatment for cancer” (Eur J Med Chem, 2023).
Active and inactive are the calls of the source. The calls are words filed in the database; no cut-off is given here.

Columns and labels:
[1] = molecular target: T1, Protein cereblon/ALK tyrosine kinase receptor/Echinoderm microtubule-associated protein-like 4 (Homo sapiens) (UniProt Q9UM73+Q9HC35+Q96SW2); experiment: PROTAC activity at CRBN/EML4-ALK in human NCI-H3122 cells assessed as degradation of EML4-ALK fusion protein at 5 uM pretreated with pomalidomide for 4 hrs followed by compound addition and measured after 24 hrs by Western blot analysis; assay type: cell-based
[2] = molecular target: T1, Protein cereblon/ALK tyrosine kinase receptor/Echinoderm microtubule-associated protein-like 4 (Homo sapiens); experiment: PROTAC activity at CRBN/EML4-ALK in human NCI-H3122 cells assessed as reduction in EML4-ALK fusion protein level at 0.1 to 20 uM incubated for 24 hrs in presence of GSH by Western blot analysis; assay type: cell-based; conditions: dose 0.1-20 µM
NCI-H3122 [3] = experiment: Cell cycle arrest in human NCI-H3122 cells assessed as accumulation of cells at S phase at 0.312 uM incubated for 24 hrs by propidium iodide staining based flow cytometric analysis (reference value: 29.94%); assay type: functional
[4] = molecular target: T1, Protein cereblon/ALK tyrosine kinase receptor/Echinoderm microtubule-associated protein-like 4 (Homo sapiens); experiment: PROTAC activity at CRBN/EML4-ALK in human NCI-H3122 cells assessed as downregulation of phosphorylated STAT3 level by Western blot analysis; assay type: cell-based
[5] = Toxicity in BALB/c nude mouse xenografted with human NCI-H3122 cells assessed as reduction in body weight at 25 to 75 mg/kg, IG administered once daily for 18 days; assay type: organism-based; conditions: in vivo, po, 432 h, dose 25-75 mg/kg, time 18 day
NCI-H3122 [6] = experiment: Cell cycle arrest in human NCI-H3122 cells assessed as accumulation of cells at S phase at 2.5 uM incubated for 24 hrs by propidium iodide staining based flow cytometric analysis (reference value: 29.94%); assay type: functional
NCI-H3122 [7] = experiment: Induction of apoptosis in human NCI-H3122 cells assessed as late apoptotic cells at 0.312 uM incubated for 48 hrs by Annexin V-FITC/propidium iodide staining based flow cytometric analysis (reference value: 3.06%); assay type: functional
NCI-H3122 [8] = experiment: Induction of apoptosis in human NCI-H3122 cells assessed as necrotic cells at 2.5 uM incubated for 48 hrs by Annexin V-FITC/propidium iodide staining based flow cytometric analysis (reference value: 0.57%); assay type: functional
[9] = molecular target: T2, Protein cereblon/Cyclin-dependent kinase 4 (Homo sapiens, UniProt P11802+Q96SW2); experiment: PROTAC activity at CRBN/CDK4 in human L02 cells assessed as reduction in CDK4 protein level at 1 to 20 uM incubated for 24 hrs by Western blot analysis; assay type: cell-based; conditions: dose 1-20 µM
NCI-H2228 [10] = experiment: Antiproliferative activity against human NCI-H2228 cells assessed as inhibition of cell growth pretreated with GSH followed by compound addition and incubated for 3 to 5 days by MTT assay; assay type: functional, cell-based
NCI-H3122 [11] = experiment: Cell cycle arrest in human NCI-H3122 cells assessed as accumulation of cells at S phase at 1.25 uM incubated for 24 hrs by propidium iodide staining based flow cytometric analysis (reference value: 29.94%); assay type: functional
NCI-H3122 [12] = experiment: Cell cycle arrest in human NCI-H3122 cells assessed as G2/M phase cells at 1.25 uM incubated for 24 hrs by propidium iodide staining based flow cytometric analysis (reference value: 20.89%); assay type: functional
NCI-H3122 [13] = experiment: Cell cycle arrest in human NCI-H3122 cells assessed as accumulation of cells at G0/G1 phase at 1.25 uM incubated for 24 hrs by propidium iodide staining based flow cytometric analysis (reference value: 48.68%); assay type: functional
NCI-H1299 = experiment: Antiproliferative activity against human NCI-H1299 cells assessed as inhibition of cell growth incubated for 3 to 5 days by MTT assay; assay type: functional, cell-based
NCI-H3122 [14] = experiment: Induction of apoptosis in human NCI-H3122 cells assessed as necrotic cells at 1.25 uM incubated for 48 hrs by Annexin V-FITC/propidium iodide staining based flow cytometric analysis (reference value: 0.57%); assay type: functional
[15] = molecular target: T2, Protein cereblon/Cyclin-dependent kinase 4; experiment: PROTAC activity at CRBN/CDK4 in human NCI-H3122 cells assessed as induction of CDK4 protein degradation at 5 uM measured after 16 hrs by Western blot analysis; assay type: cell-based
[16] = Stability of the compound in mouse plasma assessed as cleavage to metabolites measured after 4 hrs by LC-MS/MS analysis relative to control; assay type: ADME, cell-free
NCI-H3122 [17] = experiment: Induction of apoptosis in human NCI-H3122 cells assessed as viable cells at 2.5 uM incubated for 48 hrs by Annexin V-FITC/propidium iodide staining based flow cytometric analysis (reference value: 95.66%); assay type: functional; conditions: read-out: Activity
NCI-H3122 [18] = experiment: Cell cycle arrest in human NCI-H3122 cells assessed as accumulation of cells at G0/G1 phase at 0.625 uM incubated for 24 hrs by propidium iodide staining based flow cytometric analysis (reference value: 48.68%); assay type: functional
[19] = molecular target: ALK tyrosine kinase receptor (Homo sapiens) (UniProt Q9UM73); experiment: Inhibition of ALK (unknown origin) at 0.05 uM by LANCE Ultra TR-FRET assay relative to control
NCI-H2228 [20] = experiment: Antiproliferative activity against human NCI-H2228 cells assessed as inhibition of cell growth incubated for 3 to 5 days by MTT assay; assay type: functional, cell-based
[21] = molecular target: Cyclin-dependent kinase 6 (Homo sapiens) (UniProt Q00534); experiment: Inhibition of CDK6 (unknown origin) at 1 uM by LANCE Ultra TR-FRET assay relative to control
[22] = molecular target: T2, Protein cereblon/Cyclin-dependent kinase 4; experiment: PROTAC activity at CRBN/CDK4 in human NCI-H3122 cells assessed as induction of CDK4 degradation at 5 uM pretreated with MG132 for 4 hrs followed compound addition and measured after 24 hrs by Western blot analysis; assay type: cell-based
[23] = molecular target: Protein cereblon/ALK tyrosine kinase receptor/Echinoderm microtubule-associated protein-like 4 (Homo sapiens, UniProt Q96SW2+Q9HC35+Q9UM73); experiment: PROTAC activity at CRBN/EML4-ALK in human NCI-H3122 cells assessed as reduction in EML4-ALK fusion protein level incubated for 24 hrs by Western blot analysis; assay type: cell-based
[24] = molecular target: ALK tyrosine kinase receptor (Homo sapiens) (UniProt Q9UM73); experiment: Inhibition of ALK (unknown origin) at 1 uM by LANCE Ultra TR-FRET assay relative to control
NCI-H3122 [25] = experiment: Induction of apoptosis in human NCI-H3122 cells assessed as late apoptotic cells at 1.25 uM incubated for 48 hrs by Annexin V-FITC/propidium iodide staining based flow cytometric analysis (reference value: 3.06%); assay type: functional
[26] = Toxicity in BALB/c nude mouse xenografted with human NCI-H3122 cells assessed as effect on visceral liver morphology at 75 mg/kg, IG administered once daily for 18 days and measured after 12 hrs of last dose by H and E staining based analysis; assay type: organism-based; conditions: in vivo, po, 444 h
NCI-H3122 [27] = experiment: Antiproliferative activity against human NCI-H3122 cells assessed as inhibition of cell growth pretreated with GSH followed by compound addition and incubated for 3 to 5 days by MTT assay; assay type: functional, cell-based
[28] = molecular target: T1, Protein cereblon/ALK tyrosine kinase receptor/Echinoderm microtubule-associated protein-like 4 (Homo sapiens); experiment: PROTAC activity at CRBN/EML4-ALK in human NCI-H2228 cells assessed as reduction in EML4-ALK fusion protein level incubated for 24 hrs by Western blot analysis; assay type: cell-based
[29] = molecular target: T1, Protein cereblon/ALK tyrosine kinase receptor/Echinoderm microtubule-associated protein-like 4 (Homo sapiens); experiment: PROTAC activity at CRBN/EML4-ALK in human NCI-H3122 cells assessed as induction of EML4-ALK fusion protein degradation at 5 uM measured at 16 to 48 hrs by Western blot analysis; assay type: cell-based; conditions: time 16-48 hrs

T2 sequence (P11802 2-303 limits assumed): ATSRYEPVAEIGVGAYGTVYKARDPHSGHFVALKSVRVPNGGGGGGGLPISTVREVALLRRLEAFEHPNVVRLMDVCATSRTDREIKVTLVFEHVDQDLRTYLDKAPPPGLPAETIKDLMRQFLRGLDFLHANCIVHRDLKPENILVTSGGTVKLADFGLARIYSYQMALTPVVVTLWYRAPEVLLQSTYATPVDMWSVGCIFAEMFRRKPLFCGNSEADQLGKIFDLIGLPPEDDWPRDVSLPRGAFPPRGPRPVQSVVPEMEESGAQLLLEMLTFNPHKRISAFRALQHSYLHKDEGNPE
T2 sequence (Q96SW2 whole entry partner): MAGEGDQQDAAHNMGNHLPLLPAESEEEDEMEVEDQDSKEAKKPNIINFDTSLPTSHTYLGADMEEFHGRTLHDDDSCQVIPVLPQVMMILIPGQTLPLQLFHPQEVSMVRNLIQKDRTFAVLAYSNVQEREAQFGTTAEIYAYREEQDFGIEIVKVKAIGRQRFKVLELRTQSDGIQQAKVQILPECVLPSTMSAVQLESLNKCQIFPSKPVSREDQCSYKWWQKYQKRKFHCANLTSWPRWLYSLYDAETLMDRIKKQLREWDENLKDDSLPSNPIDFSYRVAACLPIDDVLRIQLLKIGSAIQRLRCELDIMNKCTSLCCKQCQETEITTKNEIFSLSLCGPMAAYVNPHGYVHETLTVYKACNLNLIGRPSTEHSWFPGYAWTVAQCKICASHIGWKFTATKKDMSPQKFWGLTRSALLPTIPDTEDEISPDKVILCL
T1 sequence (Q96SW2 whole entry partner, the tested form may be a part): as the sequence (Q96SW2 whole entry partner) above
T1 sequence (Q9HC35 whole entry partner, the tested form may be a part): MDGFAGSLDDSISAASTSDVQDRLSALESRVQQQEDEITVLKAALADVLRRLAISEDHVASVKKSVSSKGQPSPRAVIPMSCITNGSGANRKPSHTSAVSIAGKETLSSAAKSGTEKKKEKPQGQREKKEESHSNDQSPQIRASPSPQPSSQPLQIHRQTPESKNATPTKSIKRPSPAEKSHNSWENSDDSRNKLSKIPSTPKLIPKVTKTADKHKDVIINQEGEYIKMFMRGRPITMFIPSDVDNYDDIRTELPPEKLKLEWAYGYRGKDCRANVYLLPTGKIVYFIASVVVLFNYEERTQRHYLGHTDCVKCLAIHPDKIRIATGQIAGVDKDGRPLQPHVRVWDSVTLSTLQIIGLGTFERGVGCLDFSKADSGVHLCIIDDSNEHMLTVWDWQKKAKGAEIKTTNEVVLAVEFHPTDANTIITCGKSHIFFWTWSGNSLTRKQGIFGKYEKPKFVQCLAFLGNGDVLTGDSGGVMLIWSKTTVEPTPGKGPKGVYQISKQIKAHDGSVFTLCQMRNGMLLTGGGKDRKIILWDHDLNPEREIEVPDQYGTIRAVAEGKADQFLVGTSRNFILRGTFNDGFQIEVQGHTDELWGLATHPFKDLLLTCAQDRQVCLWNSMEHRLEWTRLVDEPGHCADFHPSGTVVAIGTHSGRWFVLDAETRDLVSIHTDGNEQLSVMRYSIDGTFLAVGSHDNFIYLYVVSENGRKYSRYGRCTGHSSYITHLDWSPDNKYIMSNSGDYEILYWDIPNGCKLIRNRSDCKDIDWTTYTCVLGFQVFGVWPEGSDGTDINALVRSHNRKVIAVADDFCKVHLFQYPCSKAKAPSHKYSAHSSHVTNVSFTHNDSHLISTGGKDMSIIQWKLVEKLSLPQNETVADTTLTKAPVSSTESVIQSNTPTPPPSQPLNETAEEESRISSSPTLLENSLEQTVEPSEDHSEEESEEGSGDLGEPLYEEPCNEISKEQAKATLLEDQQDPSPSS
T1 sequence (Q9UM73 19-1620 limits assumed): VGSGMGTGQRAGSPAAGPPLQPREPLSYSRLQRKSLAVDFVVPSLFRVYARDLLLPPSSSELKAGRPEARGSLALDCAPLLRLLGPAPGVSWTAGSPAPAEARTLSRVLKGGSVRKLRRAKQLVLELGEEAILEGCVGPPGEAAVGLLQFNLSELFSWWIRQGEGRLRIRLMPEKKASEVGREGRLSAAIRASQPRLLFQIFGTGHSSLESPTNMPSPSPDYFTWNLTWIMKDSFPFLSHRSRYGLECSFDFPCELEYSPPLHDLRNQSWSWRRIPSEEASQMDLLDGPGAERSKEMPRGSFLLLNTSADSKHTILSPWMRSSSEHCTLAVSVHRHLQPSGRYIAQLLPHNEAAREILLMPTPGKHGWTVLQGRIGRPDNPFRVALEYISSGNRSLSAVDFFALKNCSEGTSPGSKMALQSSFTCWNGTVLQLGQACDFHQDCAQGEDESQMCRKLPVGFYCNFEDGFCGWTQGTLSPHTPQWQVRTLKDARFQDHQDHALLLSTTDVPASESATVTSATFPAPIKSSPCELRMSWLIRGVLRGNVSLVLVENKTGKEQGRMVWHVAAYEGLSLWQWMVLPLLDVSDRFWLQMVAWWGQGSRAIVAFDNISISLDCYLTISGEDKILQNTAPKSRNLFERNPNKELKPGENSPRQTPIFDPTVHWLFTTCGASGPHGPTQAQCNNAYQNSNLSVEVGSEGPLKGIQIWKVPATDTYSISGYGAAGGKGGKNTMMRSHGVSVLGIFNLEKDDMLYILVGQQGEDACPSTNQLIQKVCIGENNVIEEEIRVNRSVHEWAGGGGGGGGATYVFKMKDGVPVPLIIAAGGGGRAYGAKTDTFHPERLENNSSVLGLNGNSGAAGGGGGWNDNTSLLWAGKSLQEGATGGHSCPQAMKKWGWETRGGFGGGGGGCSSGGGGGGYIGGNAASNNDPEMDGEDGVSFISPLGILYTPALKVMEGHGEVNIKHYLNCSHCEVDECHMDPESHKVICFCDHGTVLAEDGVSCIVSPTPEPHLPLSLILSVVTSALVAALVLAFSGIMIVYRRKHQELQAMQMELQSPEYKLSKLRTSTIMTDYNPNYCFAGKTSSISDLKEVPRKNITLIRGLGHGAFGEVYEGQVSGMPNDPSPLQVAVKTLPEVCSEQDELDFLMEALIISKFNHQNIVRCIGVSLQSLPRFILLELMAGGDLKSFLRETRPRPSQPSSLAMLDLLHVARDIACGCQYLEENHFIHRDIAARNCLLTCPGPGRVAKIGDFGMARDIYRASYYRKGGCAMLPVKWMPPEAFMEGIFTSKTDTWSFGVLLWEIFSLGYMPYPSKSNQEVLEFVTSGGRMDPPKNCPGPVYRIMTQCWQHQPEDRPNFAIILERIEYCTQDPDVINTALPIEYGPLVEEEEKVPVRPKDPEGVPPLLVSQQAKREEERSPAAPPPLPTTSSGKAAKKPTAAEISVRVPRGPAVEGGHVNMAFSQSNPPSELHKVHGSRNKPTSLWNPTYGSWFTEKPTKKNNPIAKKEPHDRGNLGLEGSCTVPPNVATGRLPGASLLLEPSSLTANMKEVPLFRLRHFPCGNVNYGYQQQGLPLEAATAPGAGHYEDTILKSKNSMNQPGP
Chain of ALK tyrosine kinase receptor (Homo sapiens) (Q9UM73 19-1620 limits assumed): as above
Chain of Cyclin-dependent kinase 6 (Homo sapiens) (Q00534 whole entry): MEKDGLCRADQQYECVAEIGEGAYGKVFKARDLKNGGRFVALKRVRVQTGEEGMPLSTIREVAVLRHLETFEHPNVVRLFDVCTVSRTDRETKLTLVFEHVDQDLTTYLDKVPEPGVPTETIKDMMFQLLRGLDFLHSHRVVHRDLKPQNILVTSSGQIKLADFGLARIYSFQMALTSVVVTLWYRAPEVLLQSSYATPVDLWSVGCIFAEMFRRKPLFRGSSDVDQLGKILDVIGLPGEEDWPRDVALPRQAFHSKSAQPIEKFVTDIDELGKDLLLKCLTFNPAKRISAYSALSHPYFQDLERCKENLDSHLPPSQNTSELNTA

CC(=O)c1c(C)c2cnc(Nc3ccc(N4CCN(CC(=O)NCCSSCCN(CC(=O)NCCNc5cccc6c5C(=O)N(C5CCC(=O)NC5=O)C6=O)C(=O)CCCCCCC(=O)N5CCC(c6cc(OC(C)C)c(Nc7ncc(Cl)c(Nc8ccccc8S(=O)(=O)C(C)C)n7)cc6C)CC5)CC4)cn3)nc2n(C2CCCC2)c1=O (stereo not given)
Activity [1]: inactive
Activity [2]: Active
Activity (NCI-H3122 [3]): 17.52%
Activity [4]: Active
Activity [5]: Non-Toxic
Activity (NCI-H3122 [6]): 6.04%
Activity (NCI-H3122 [7]): 5.85%
Activity (NCI-H3122 [8]): 1.01%
Activity [9]: inactive
IC50 (NCI-H2228 [10]): 1760 nM
Activity (NCI-H3122 [11]): 10.58%
Activity (NCI-H3122 [12]): 16.61%
Activity (NCI-H3122 [13]): 72.25%
IC50 (NCI-H1299): 21200 nM
Activity (NCI-H3122 [14]): 1.91%
Activity [15]: Active
Drug degradation [16]: 30%
viability at 2.5 µM (NCI-H3122 [17]): 81.8%
Activity (NCI-H3122 [18]): 68.5%
inhibition [19]: 68.3%
IC50 (NCI-H2228 [20]): 5560 nM
inhibition [21]: 97.8%
Activity [22]: inactive
EC50 [23]: 2830 nM
inhibition [24]: 96.4%
Activity (NCI-H3122 [25]): 10.54%
Activity [26]: Non-Toxic
IC50 (NCI-H3122 [27]): 90 nM
Activity [28]: Active
Activity [29]: Active
